Data published in the NIST ThermoML archive (doi:10.1016/j.fluid.2010.02.037).
± gives the expanded uncertainty stated by the source.

Settings: Gas, Oscillating disk viscometry

CCN(CC)CC [triethylamine]
Settings | viscosity [mPa·s]
296.98 K, Amount density=4.2 mol/m3 | 0.006418 ± 0.0003
297.59 K, Amount density=6.31 mol/m3 | 0.006412 ± 0.0003
297.87 K, Amount density=8.75 mol/m3 | 0.006427 ± 0.0003
297.97 K, Amount density=4.2 mol/m3 | 0.006439 ± 0.0003
297.98 K, Amount density=4.99 mol/m3 | 0.00644 ± 0.0003
298.33 K, Amount density=4.99 mol/m3 | 0.006437 ± 0.0003
299.24 K, Amount density=7.52 mol/m3 | 0.006446 ± 0.0003
299.36 K, Amount density=6.31 mol/m3 | 0.006449 ± 0.0003
299.67 K, Amount density=2.2 mol/m3 | 0.00649 ± 0.00031
299.85 K, Amount density=2.2 mol/m3 | 0.006485 ± 0.00031
300.02 K, Amount density=3.13 mol/m3 | 0.006488 ± 0.00031
300.11 K, Amount density=8.75 mol/m3 | 0.00646 ± 0.0003
303.12 K, Amount density=3.13 mol/m3 | 0.006548 ± 0.00031
310.02 K, Amount density=4.2 mol/m3 | 0.006668 ± 0.00031
310.29 K, Amount density=6.31 mol/m3 | 0.006654 ± 0.00031
311.78 K, Amount density=8.75 mol/m3 | 0.006667 ± 0.00031
313.96 K, Amount density=2.2 mol/m3 | 0.006764 ± 0.00031
314.61 K, Amount density=4.99 mol/m3 | 0.00675 ± 0.00031
316.33 K, Amount density=3.13 mol/m3 | 0.006815 ± 0.00031
324.05 K, Amount density=8.75 mol/m3 | 0.006913 ± 0.00032
324.26 K, Amount density=3.13 mol/m3 | 0.006981 ± 0.00032
324.9 K, Amount density=6.31 mol/m3 | 0.006948 ± 0.00032
324.95 K, Amount density=4.2 mol/m3 | 0.006971 ± 0.00032
325.84 K, Amount density=4.99 mol/m3 | 0.00698 ± 0.00032
326.04 K, Amount density=7.52 mol/m3 | 0.006979 ± 0.00032
326.63 K, Amount density=2.2 mol/m3 | 0.007024 ± 0.00032
337.84 K, Amount density=6.31 mol/m3 | 0.007205 ± 0.00032
338.12 K, Amount density=7.52 mol/m3 | 0.007218 ± 0.00032
338.25 K, Amount density=4.99 mol/m3 | 0.007233 ± 0.00032
338.31 K, Amount density=3.13 mol/m3 | 0.007259 ± 0.00032
338.63 K, Amount density=4.2 mol/m3 | 0.007245 ± 0.00032
338.92 K, Amount density=8.75 mol/m3 | 0.007217 ± 0.00032
339.05 K, Amount density=2.2 mol/m3 | 0.007275 ± 0.00032
352.32 K, Amount density=7.52 mol/m3 | 0.007513 ± 0.00033
352.34 K, Amount density=8.75 mol/m3 | 0.007487 ± 0.00033
352.41 K, Amount density=6.31 mol/m3 | 0.007492 ± 0.00033
352.46 K, Amount density=4.99 mol/m3 | 0.007529 ± 0.00033
352.5 K, Amount density=2.2 mol/m3 | 0.007551 ± 0.00033
352.91 K, Amount density=3.13 mol/m3 | 0.007557 ± 0.00033
353.3 K, Amount density=4.2 mol/m3 | 0.007551 ± 0.00033
365.86 K, Amount density=4.2 mol/m3 | 0.007803 ± 0.00034
366.42 K, Amount density=8.75 mol/m3 | 0.007782 ± 0.00034
366.49 K, Amount density=3.13 mol/m3 | 0.007839 ± 0.00034
366.6 K, Amount density=2.2 mol/m3 | 0.007842 ± 0.00034
366.72 K, Amount density=7.52 mol/m3 | 0.007801 ± 0.00034
366.77 K, Amount density=6.31 mol/m3 | 0.007784 ± 0.00034
367.25 K, Amount density=4.99 mol/m3 | 0.007831 ± 0.00034
380.54 K, Amount density=4.99 mol/m3 | 0.008109 ± 0.00034
380.67 K, Amount density=3.13 mol/m3 | 0.008129 ± 0.00034
381.06 K, Amount density=8.75 mol/m3 | 0.008076 ± 0.00034
381.14 K, Amount density=2.2 mol/m3 | 0.008137 ± 0.00034
381.83 K, Amount density=6.31 mol/m3 | 0.008106 ± 0.00034
385.41 K, Amount density=4.2 mol/m3 | 0.008217 ± 0.00035
385.75 K, Amount density=7.52 mol/m3 | 0.008206 ± 0.00035
394.25 K, Amount density=4.2 mol/m3 | 0.008388 ± 0.00035
394.49 K, Amount density=6.31 mol/m3 | 0.00837 ± 0.00035
394.51 K, Amount density=4.99 mol/m3 | 0.008386 ± 0.00035
394.56 K, Amount density=2.2 mol/m3 | 0.008413 ± 0.00035
394.86 K, Amount density=7.52 mol/m3 | 0.008384 ± 0.00035
394.95 K, Amount density=3.13 mol/m3 | 0.008423 ± 0.00035
395.11 K, Amount density=8.75 mol/m3 | 0.008369 ± 0.00035
408.35 K, Amount density=8.75 mol/m3 | 0.00864 ± 0.00036
408.97 K, Amount density=6.31 mol/m3 | 0.008662 ± 0.00036
409.2 K, Amount density=2.2 mol/m3 | 0.008718 ± 0.00036
409.32 K, Amount density=4.99 mol/m3 | 0.008707 ± 0.00036
409.67 K, Amount density=7.52 mol/m3 | 0.00869 ± 0.00036
409.73 K, Amount density=4.2 mol/m3 | 0.008711 ± 0.00036
412.99 K, Amount density=3.13 mol/m3 | 0.008804 ± 0.00036
422.67 K, Amount density=8.75 mol/m3 | 0.008939 ± 0.00036
422.79 K, Amount density=2.2 mol/m3 | 0.008996 ± 0.00036
423.03 K, Amount density=7.52 mol/m3 | 0.008963 ± 0.00036
423.25 K, Amount density=4.99 mol/m3 | 0.008991 ± 0.00036
423.41 K, Amount density=3.13 mol/m3 | 0.009012 ± 0.00036
423.92 K, Amount density=6.31 mol/m3 | 0.008966 ± 0.00036
423.93 K, Amount density=4.2 mol/m3 | 0.008988 ± 0.00036
436.97 K, Amount density=4.2 mol/m3 | 0.009275 ± 0.00037
437.11 K, Amount density=6.31 mol/m3 | 0.009249 ± 0.00037
437.42 K, Amount density=2.2 mol/m3 | 0.009296 ± 0.00037
437.51 K, Amount density=3.13 mol/m3 | 0.009315 ± 0.00037
437.62 K, Amount density=4.99 mol/m3 | 0.009286 ± 0.00037
437.76 K, Amount density=8.75 mol/m3 | 0.009255 ± 0.00037
437.87 K, Amount density=7.52 mol/m3 | 0.009269 ± 0.00037
451.28 K, Amount density=4.99 mol/m3 | 0.009572 ± 0.00038
451.45 K, Amount density=8.75 mol/m3 | 0.009534 ± 0.00038
451.66 K, Amount density=6.31 mol/m3 | 0.009554 ± 0.00038
451.72 K, Amount density=2.2 mol/m3 | 0.009594 ± 0.00038
451.74 K, Amount density=3.13 mol/m3 | 0.009599 ± 0.00038
451.76 K, Amount density=4.2 mol/m3 | 0.009586 ± 0.00038
451.93 K, Amount density=7.52 mol/m3 | 0.009558 ± 0.00038
465.92 K, Amount density=6.31 mol/m3 | 0.009846 ± 0.00038
466.45 K, Amount density=4.99 mol/m3 | 0.009879 ± 0.00039
466.58 K, Amount density=2.2 mol/m3 | 0.009907 ± 0.00039
466.63 K, Amount density=8.75 mol/m3 | 0.009851 ± 0.00038
466.71 K, Amount density=4.2 mol/m3 | 0.009893 ± 0.00039
469.98 K, Amount density=3.13 mol/m3 | 0.009985 ± 0.00039
471.39 K, Amount density=7.52 mol/m3 | 0.009972 ± 0.00039
480.12 K, Amount density=8.75 mol/m3 | 0.01013 ± 0.00039
480.36 K, Amount density=2.2 mol/m3 | 0.01019 ± 0.00039
480.43 K, Amount density=4.99 mol/m3 | 0.01017 ± 0.00039
480.7 K, Amount density=7.52 mol/m3 | 0.01015 ± 0.00039
480.86 K, Amount density=3.13 mol/m3 | 0.0102 ± 0.00039
481.09 K, Amount density=6.31 mol/m3 | 0.01015 ± 0.00039
481.32 K, Amount density=4.2 mol/m3 | 0.01019 ± 0.00039
495.17 K, Amount density=6.31 mol/m3 | 0.01045 ± 0.0004
495.29 K, Amount density=4.99 mol/m3 | 0.01047 ± 0.0004
495.31 K, Amount density=4.2 mol/m3 | 0.01049 ± 0.0004
495.84 K, Amount density=7.52 mol/m3 | 0.01046 ± 0.0004
496.21 K, Amount density=8.75 mol/m3 | 0.01046 ± 0.0004
498.38 K, Amount density=3.13 mol/m3 | 0.01057 ± 0.0004
498.45 K, Amount density=2.2 mol/m3 | 0.01056 ± 0.0004
